Where a name gives a salt, the structure may show the parent alone.

As usually defined, the IC50 is the point on the concentration scale where inhibition reaches its midpoint.

This experiment deals with TrkA (Homo sapiens (Human), UniProt P04629). Nature of the experiment: TrkA Omnia Assay. Type of experiment: biochemical. The following applies: averaged IC50; 20 nM enzyme, 500 μM ATP, 10 μM peptide substrate. Summed up: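 Recombinant TrkA (20 nM) preincubated 10 min at ambient temperature with compound, then Omnia Tyr Peptide #4 (10 μM) and ATP (500 μM) added in 25 mM MOPS pH 7.5, 5 mM MgCl2, 0.005% Triton X-100. Fluorescence (ex 360/em 485 nm) followed continuously for 70 min; IC50 from initial rates by 4- or 5-parameter logistic fit.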
Chain of TrkA (P04629 33-796): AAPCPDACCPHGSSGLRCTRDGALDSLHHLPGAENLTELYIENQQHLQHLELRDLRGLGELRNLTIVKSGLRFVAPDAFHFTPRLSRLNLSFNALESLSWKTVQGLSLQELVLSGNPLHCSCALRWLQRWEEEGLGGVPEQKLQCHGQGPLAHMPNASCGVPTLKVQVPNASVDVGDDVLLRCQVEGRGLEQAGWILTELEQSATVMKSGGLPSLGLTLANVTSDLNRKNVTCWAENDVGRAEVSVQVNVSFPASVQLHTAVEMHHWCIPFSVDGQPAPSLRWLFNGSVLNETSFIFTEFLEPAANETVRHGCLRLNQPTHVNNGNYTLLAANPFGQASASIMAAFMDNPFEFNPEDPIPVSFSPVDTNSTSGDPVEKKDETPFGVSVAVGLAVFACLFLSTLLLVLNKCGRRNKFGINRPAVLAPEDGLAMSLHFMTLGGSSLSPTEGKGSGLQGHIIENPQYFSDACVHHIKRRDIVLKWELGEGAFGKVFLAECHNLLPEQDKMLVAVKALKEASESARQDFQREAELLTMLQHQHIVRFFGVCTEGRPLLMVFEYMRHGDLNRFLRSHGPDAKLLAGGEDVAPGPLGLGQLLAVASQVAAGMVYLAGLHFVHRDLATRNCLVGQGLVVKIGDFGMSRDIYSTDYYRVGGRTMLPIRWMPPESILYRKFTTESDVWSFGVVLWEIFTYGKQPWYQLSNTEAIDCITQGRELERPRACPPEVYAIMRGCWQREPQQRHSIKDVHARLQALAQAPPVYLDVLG

`COCCN1C[C@@H](NC(=O)Nc2cc(-c3ccc(S(C)(=O)=O)cc3)nn2C)[C@H](c2ccc(F)c(F)c2)C1` [Example 166, 1-((3S,4R)-4-(3,4-difluorophenyl)-1-(2-methoxyethyl)pyrrolidin-3-yl)-3-(1-methyl-3-(4-(methylsulfonyl)phenyl)-1H-pyrazol-5-yl)urea] had an IC50 of under 100 nM.

With `COCCN1C[C@@H](NC(=O)Nc2c3c(nn2-c2ccccc2)CS(=O)(=O)C3)[C@H](c2ccccc2)C1` [Example 172, 1-(5,5-dioxido-2-phenyl-4,6-dihydro-2H-thieno[3,4-c]pyrazol-3-yl)-3-((3S,4R)-1-(2-methoxyethyl)-4-phenylpyrrolidin-3-yl)urea], the IC50 was under 100 nM.

As for `O=C(Nc1c2c(nn1-c1ccccc1)CCC2)N[C@@H]1CN(CC(F)(F)F)C[C@H]1c1ccccc1Cl` (relative stereo) [Example 212, 1-((trans)-4-(2-chlorophenyl)-1-(2,2,2-trifluoroethyl)pyrrolidin-3-yl)-3-(2-phenyl-2,4,5,6-tetrahydrocyclopenta[c]pyrazol-3-yl)urea], the IC50 was 1000 to 10000 nM.

`COCCN1C[C@@H](NC(=O)Nc2c(C)c(OCC(=O)N3CCOCC3)nn2-c2ccccc2)[C@H](c2ccc(F)c(F)c2)C1` [Example 552, 1-((3S,4R)-4-(3,4-difluorophenyvl)-1-(2-methoxyethyl)pyrrolidin-3-yl)-3-(4-methyl-3-(2-morpholino-2-oxoethoxy)-1-phenyl-1H-pyrazol-5-yl)urea] gave an IC50 of under 100 nM.

Molecule `CCOc1nn(-c2ccccc2)c(NC(=O)N[C@@H]2CN(c3ccccc3F)C[C@H]2c2ccccc2)c1C` [Example 234, 1-(3-ethoxy-4-methyl-1-phenyl-1H-pyrazol-5-yl)-3-((3S,4R)-1-(2-fluorophenyl)-4-phenylpyrrolidin-3-yl)urea] registered an IC50 of 100 to 1000 nM.

In turn, `Cc1c(OC[C@H](O)CO)nn(-c2ccccc2)c1NC(=O)N[C@H]1CN(CC(F)(F)F)C[C@@H]1c1ccccc1` [Example 272, 1-(3-((R)-2,3-dihydroxvpropoxy)-4-methyl-1-phenyl-1H-pyrazol-5-yl)-3-((3R,4S)-4-phenyl-1-(2,2,2-trifluoroethyl)pyrrolidin-3-yl)urea] yielded an IC50 of under 100 nM.

The molecule `COCCN1C[C@@H](NC(=O)Nc2c(C(F)(F)F)c(OC)nn2-c2ccccc2)[C@H](c2ccc(F)cc2)C1` [Example 607, 1-((3S,4R)-4-(4-fluorophenyl)-1-(2-methoxyethyl)pyrrolidin-3-yl)-3-(3-methoxy-1-phenyl-4-(trifluoromethyl)-1H-pyrazol-5-yl)urea] displayed an IC50 of under 100 nM.

Molecule `COCCN1C[C@@H](NC(=O)Nc2c(C)c([C@H]3CCCN3)nn2-c2ccccc2)[C@H](c2ccc(F)c(F)c2)C1` [Example 583, 1-((3S,4R)-4-(3,4-difluorophenyl)-1-(2-methoxyethyl)pyrrolidin-3-yl)-3-(4-methyl-1-phenyl-3-((R)-pyrrolidin-2-yl)-1H-pyrazol-5-yl)urea dihydrochloride] displayed an IC50 of under 100 nM.

`O=C(Nc1c2c(nn1-c1ccccc1)CCC2)N[C@@H]1CN(CC(F)(F)F)C[C@H]1c1ccc(F)cc1` (relative stereo) [Example 210, 1-((trans)-4-(4-fluorophenyl)-1-(2,2,2-trifluoroethyl)pyrrolidin-3-yl)-3-(2-phenyl-2,4,5,6-tetrahydrocyclopenta[c]pyrazol-3-yl)urea]: the IC50 is under 100 nM.

Consider `COCCN1C[C@@H](NC(=O)Nc2c(Cl)c(C(C)(C)C#N)nn2-c2ccccc2)[C@H](c2ccc(F)c(F)c2)C1` [Example 418, 1-(4-chloro-3-(2-cyanopropan-2-yl)-1-phenyl-1H-pyrazol-5-yl)-3-((3S,4R)-4-(3,4-difluorophenyl)-1-(2-methoxyethyl)pyrrolidin-3-yl)urea], for which the IC50 was under 100 nM.

Consider `COCCOc1nn(-c2ccccc2)c(NC(=O)N[C@@H]2CN(c3cn[nH]c3)C[C@H]2c2ccc(F)c(F)c2)c1C` [Example 226, 1-((3S,4R)-4-(3,4-difluorophenyl)-1-(1H-pyrazol-4-yl)pyrrolidin-3-yl)-3-(3-(2-methoxyethoxy)-4-methyl-1-phenyl-1H-pyrazol-5-yl)urea], for which the IC50 is under 100 nM.

For the molecule `COCCN1C[C@@H](NC(=O)Nc2c(C)c(-c3cnn(C)c3)nn2-c2ccccc2)[C@H](c2ccc(C)cc2)C1` [Example 327, 1-(1′,4-dimethyl-1-phenyl-1H,1′H-[3,4′-bipyrazol]-5-yl)-3-((3S,4R)-1-(2-methoxyethyl)-4-(p-tolyl)pyrrolidin-3-yl)urea], the IC50 was under 100 nM.

Molecule `COCCN1C[C@@H](NC(=O)Nc2c(C)c(-c3cn[nH]c3)nn2-c2ccccc2)[C@H](c2ccc(F)c(F)c2)C1` [Example 447] returned an IC50 of under 100 nM.

Molecule `COCCN1C[C@@H](NC(=O)Nc2c(Cl)c(C3CCOCC3)nn2-c2ccccc2)[C@H](c2ccc(F)c(F)c2)C1` [Example 568, 1-(4-chloro-1-phenyl-3-(tetrahydro-2H-pyran-4-yl)-1H-pyrazol-5-yl)-3-((3S,4R)-4-(3,4-difluorophenyl)-1-(2-methoxyethyl)pyrrolidin-3-yl)urea] had a half-maximal inhibitory concentration (IC50) of under 100 nM.

Consider `COCCN1C[C@@H](NC(=N)Nc2c(Br)c(C)nn2-c2ccccc2)[C@H](c2ccc(F)c(F)c2)C1` [Example 629, 1-(4-bromo-3-methyl-1-phenyl-1H-pyrazol-5-yl)-3-((3S,4R)-4-(3,4-difluorophenyl)-1-(2-methoxyethyl)pyrrolidin-3-yl)guanidine dihydrochloride], for which the IC50 lay in the range of 1000 to 10000 nM.

On to `COCCN1C[C@@H](NC(=O)Nc2c(C)c(-c3cnn(C)c3)nn2-c2cncc(C)c2)[C@H](c2ccc(F)c(F)c2)C1` [Example 496, 1-((3S,4R)-4-(3,4-difluorophenyvl)-1-(2-methoxyethyl)pyrrolidin-3-yl)-3-(1′,4-dimethyl-1-(5-methylpyridin-3-yl)-1H, 1′H-[3,4′-bipyrazol]-5-yl)urea], for which the IC50 is 100 to 1000 nM.

`COCCN1C[C@@H](NC(=O)Nc2c(Cl)c(C3CCN(S(=O)(=O)C(F)(F)F)CC3)nn2-c2ccccc2)[C@H](c2ccc(F)c(F)c2)C1` [Example 594, 1-(4-chloro-1-phenyl-3-(1-(trifluoromethylsulfonyl)piperidin-4-yl)-1H-pyrazol-5-yl)-3-((3S,4R)-4-(3,4-difluorophenyl)-1-(2-methoxyethyl)pyrrolidin-3-yl)urea hydrochloride]: the IC50 was under 100 nM.

For the molecule `COCCN1C[C@@H](NC(=O)Nc2ccnn2C)[C@H](c2ccccc2)C1` (relative stereo) [Example 20, 1-(trans-1-(2-methoxyethyl)-4-phenylpyrrolidin-3-yl)-3-(1-methyl-1H-pyrazol-5-yl)urea], the IC50 is 1000 to 10000 nM.

Molecule `C[C@H]1[C@@H](c2ccccc2)C(NC(=O)Nc2c3c(nn2-c2ccccc2)CCC3)CN1CC(F)(F)F` (stereo partly drawn) [Example 274, (R,S)-1-((3β,4α,5α)-5-methyl-4-phenyl-1-(2,2,2-trifluoroethyl)pyrrolidin-3-yl)-3-(2-phenyl-2,4,5,6-tetrahydrocyclopenta[c]pyrazol-3-yl)urea] registered a half-maximal inhibitory concentration (IC50) of 100 to 1000 nM.

As to `COCCN1C[C@@H](NC(=O)Nc2c(C)c(OCCS(C)(=O)=O)nn2-c2ccccc2)[C@H](c2ccc(F)c(F)c2)C1` [Example 174, 1-((3S,4R)-4-(3,4-difluorophenyl)-1-(2-methoxyethyl)pyrrolidin-3-yl)-3-(4-methyl-3-(2-(methylsulfonyl)ethoxy)-1-phenyl-1H-pyrazol-5-yl)urea], the IC50 is under 100 nM.

For the origin of these results see patent publication US10323022B2, “Pyrrolidinyl urea, pyrrolidinyl thiourea and pyrrolidinyl guanidine compounds as TrkA kinase inhibitors” (Array BioPharma Inc., priority 2011, dated 2019).
